These results are taken from PubChem BioAssay AID180 (DTP/NCI, 2004).

Structures are written as SMILES. Values joined by “and” are separate entries in the source; they are usually repeats but may differ in a detail not shown here. Equal entries are not always repeated.

In this experiment the test system is BDF1 mice, Adenocarcinoma 755 s.c., tumor weight T/C. The experiment is described as follows: NCI In Vivo Anticancer Drug Screen. Data for tumor model Adenocarcinoma 755 (subcutaneous) in B6D2F1 (BDF1) mice. The following applies: endpoint: mean tumor weight, higher = larger tumour. Here is the method:
The antitumor activity of compounds was measured in mice bearing transplantable tumors. Survival or tumor size were measured and the results are expressed as the measurement made in the treated group (T) divided by the measurement made in the vehicle treated control group (C). The tumor model used in this assay is Adenocarcinoma 755 (subcutaneous) in B6D2F1 (BDF1) mice

Where [1] appears, read: dose: 125.0 mg/kg/injection, schedule: Q01DX011 (ip), vehicle: methylcellulose (MC).

The term T/C denotes the ratio of treated to control. Regarding `c1ccc2[nH]cnc2c1`, the T/C is 74 % of control (dose: 38.5 mg/kg/injection, schedule: Q01DX011 (ip), vehicle: carboxymethylcellulose (CMC)); 93 % of control (dose: 40.0 mg/kg/injection, schedule: Q01DX011 (ip), vehicle: carboxymethylcellulose (CMC)); 116 % of control (dose: 43.5 mg/kg/injection, schedule: Q01DX011 (ip), vehicle: carboxymethylcellulose (CMC)); 60 % of control (dose: 62.5 mg/kg/injection, schedule: Q01DX011 (ip), vehicle: methylcellulose (MC)); 62 % of control (dose: 77.0 mg/kg/injection, schedule: Q01DX011 (ip), vehicle: carboxymethylcellulose (CMC)); 72 % of control (dose: 80.0 mg/kg/injection, schedule: Q01DX011 (ip), vehicle: carboxymethylcellulose (CMC)). Further, the T/C is 110 % of control (dose: 87.0 mg/kg/injection, schedule: Q01DX011 (ip), vehicle: carboxymethylcellulose (CMC)); 41 % of control and 57 % of control (dose: 123.2 mg/kg/injection, schedule: Q01DX011 (ip), vehicle: carboxymethylcellulose (CMC)); 88 % of control under setting [1]; 105 % of control (dose: 160.0 mg/kg/injection, schedule: Q01DX011 (ip), vehicle: carboxymethylcellulose (CMC)); 101 % of control (dose: 174.0 mg/kg/injection, schedule: Q01DX011 (ip), vehicle: carboxymethylcellulose (CMC)); 77 % of control and 82 % of control (dose: 205.33 mg/kg/injection, schedule: Q01DX011 (ip), vehicle: carboxymethylcellulose (CMC)). Further, the T/C was 118 % of control (dose: 250.0 mg/kg/injection, schedule: Q01DX011 (ip), vehicle: methylcellulose (MC)); 123 % of control (dose: 320.0 mg/kg/injection, schedule: Q01DX011 (ip), vehicle: carboxymethylcellulose (CMC)); 76 % of control (dose: 348.0 mg/kg/injection, schedule: Q01DX011 (ip), vehicle: carboxymethylcellulose (CMC)).

In the case of `CC(C)n1cnc2c(=S)nc[nH]c21`, the T/C by setting is: (dose: 0.2 mg/kg/injection, schedule: Q01DX011 (ip), vehicle: carboxymethylcellulose (CMC)) 114 % of control; (dose: 0.39 mg/kg/injection, schedule: Q01DX011 (ip), vehicle: carboxymethylcellulose (CMC)) 67 % of control; (dose: 0.45 mg/kg/injection, schedule: Q01DX011 (ip), vehicle: carboxymethylcellulose (CMC)) 63 % of control; (dose: 0.78 mg/kg/injection, schedule: Q01DX011 (ip), vehicle: carboxymethylcellulose (CMC)) 111 % of control; (dose: 0.9 mg/kg/injection, schedule: Q01DX011 (ip), vehicle: carboxymethylcellulose (CMC)) 62 % of control; (dose: 0.9 mg/kg/injection, schedule: Q01DX011 (oral), vehicle: carboxymethylcellulose (CMC)) 52 % of control. Further, the T/C was 50 % of control (dose: 1.56 mg/kg/injection, schedule: Q01DX011 (ip), vehicle: carboxymethylcellulose (CMC)); 15 % of control (dose: 1.8 mg/kg/injection, schedule: Q01DX011 (ip), vehicle: carboxymethylcellulose (CMC)); 11 % of control (dose: 1.8 mg/kg/injection, schedule: Q01DX011 (oral), vehicle: carboxymethylcellulose (CMC)); 9 % of control (dose: 3.12 mg/kg/injection, schedule: Q01DX011 (ip), vehicle: carboxymethylcellulose (CMC)); 1 % of control (dose: 3.6 mg/kg/injection, schedule: Q01DX011 (ip), vehicle: carboxymethylcellulose (CMC)); 5 % of control (dose: 3.6 mg/kg/injection, schedule: Q01DX011 (oral), vehicle: carboxymethylcellulose (CMC)). Moreover, the T/C reads like this: (dose: 3.62 mg/kg/injection, schedule: Q01DX011 (ip), vehicle: carboxymethylcellulose (CMC)) 7 % of control and 14 % of control; (dose: 6.25 mg/kg/injection, schedule: Q01DX011 (ip), vehicle: carboxymethylcellulose (CMC)) 6 % of control; (dose: 7.25 mg/kg/injection, schedule: Q01DX011 (ip), vehicle: carboxymethylcellulose (CMC)) 3 % of control and 6 % of control; (dose: 7.25 mg/kg/injection, schedule: Q01DX011 (oral), vehicle: carboxymethylcellulose (CMC)) 11 % of control; (dose: 12.5 mg/kg/injection, schedule: Q01DX011 (ip), vehicle: carboxymethylcellulose (CMC)) 3 % of control; (dose: 14.5 mg/kg/injection, schedule: Q01DX011 (ip), vehicle: carboxymethylcellulose (CMC)) 1 % of control. For the same molecule, the T/C was 8 % of control (dose: 25.0 mg/kg/injection, schedule: Q01DX011 (ip), vehicle: carboxymethylcellulose (CMC)); 2 % of control (dose: 29.0 mg/kg/injection, schedule: Q01DX011 (oral), vehicle: carboxymethylcellulose (CMC)); 3 % of control and 6 % of control (dose: 50.0 mg/kg/injection, schedule: Q01DX011 (ip), vehicle: carboxymethylcellulose (CMC)).

In the case of `CC(=O)[C@@]12OC(C)(C)O[C@@H]1C[C@H]1[C@@H]3C[C@H](C)C4=CC(=O)CC[C@]4(C)[C@H]3CC[C@@]12C`, the T/C was 28 % of control (dose: 56.0 mg/kg/injection, schedule: Q01DX011 (sc), vehicle: steriod suspending solution); 34 % of control (dose: 62.0 mg/kg/injection, schedule: Q01DX011 (sc), vehicle: steriod suspending solution); 38 % of control (dose: 75.0 mg/kg/injection, schedule: Q01DX011 (sc), vehicle: steriod suspending solution); 46 % of control (dose: 113.0 mg/kg/injection, schedule: Q01DX011 (sc), vehicle: steriod suspending solution); 21 % of control (dose: 125.0 mg/kg/injection, schedule: Q01DX011 (sc), vehicle: steriod suspending solution); 18 % of control (dose: 150.0 mg/kg/injection, schedule: Q01DX011 (sc), vehicle: steriod suspending solution). For the same molecule, the T/C is 24 % of control (dose: 225.0 mg/kg/injection, schedule: Q01DX011 (sc), vehicle: steriod suspending solution); 17 % of control (dose: 250.0 mg/kg/injection, schedule: Q01DX011 (sc), vehicle: steriod suspending solution); 15 % of control (dose: 300.0 mg/kg/injection, schedule: Q01DX011 (sc), vehicle: steriod suspending solution); 35 % of control (dose: 450.0 mg/kg/injection, schedule: Q01DX011 (sc), vehicle: steriod suspending solution); 14 % of control (dose: 600.0 mg/kg/injection, schedule: Q01DX011 (sc), vehicle: steriod suspending solution); 16 % of control (dose: 900.0 mg/kg/injection, schedule: Q01DX011 (sc), vehicle: steriod suspending solution).

As for `O=S(=O)(F)c1nc(Cl)c2[nH]cnc2n1`, the T/C (dose: 6.2 mg/kg/injection, schedule: Q01DX011 (ip), vehicle: methylcellulose (MC)) was 117 % of control.

`COc1cc(C(=O)O)nc(SC)n1`: the T/C (dose: 15.0 mg/kg/injection, schedule: Q01DX011 (ip), vehicle: methylcellulose (MC)) is 115 % of control; the T/C (dose: 31.0 mg/kg/injection, schedule: Q01DX011 (ip), vehicle: methylcellulose (MC)) was 94 % of control; the T/C (dose: 62.0 mg/kg/injection, schedule: Q01DX011 (ip), vehicle: methylcellulose (MC)) is 88 % of control; the T/C under setting [1] was 87 % of control.

As for `O=CC1CO1` (centres undefined), the T/C was 71 % of control (dose: 29.0 mg/kg/injection, schedule: Q01DX011 (ip), vehicle: saline); 41 % of control (dose: 44.0 mg/kg/injection, schedule: Q01DX011 (ip), vehicle: saline); 66 % of control (dose: 66.0 mg/kg/injection, schedule: Q01DX011 (ip), vehicle: saline).

With `NC(=S)N/N=C/c1cccnc1`, the T/C (dose: 1:1000.0 dilution, schedule: Q01DX006 (ip), vehicle: water) was 124 % of control and the T/C (dose: 1:2000.0 dilution, schedule: Q01DX006 (ip), vehicle: water) was 110 % of control.

As for `CCCCSc1ncnc2c1ncn2C1CCCCO1` (centres undefined), the T/C is 78 % of control (dose: 9.2 mg/kg/injection, schedule: Q01DX011 (ip), vehicle: carboxymethylcellulose (CMC)); 58 % of control (dose: 14.0 mg/kg/injection, schedule: Q01DX011 (ip), vehicle: carboxymethylcellulose (CMC)); 35 % of control (dose: 21.0 mg/kg/injection, schedule: Q01DX011 (ip), vehicle: carboxymethylcellulose (CMC)); 17 % of control (dose: 31.0 mg/kg/injection, schedule: Q01DX011 (ip), vehicle: carboxymethylcellulose (CMC)); 21 % of control (dose: 47.0 mg/kg/injection, schedule: Q01DX011 (ip), vehicle: carboxymethylcellulose (CMC)); 11 % of control (dose: 63.0 mg/kg/injection, schedule: Q01DX011 (ip), vehicle: carboxymethylcellulose (CMC)). For the same molecule, the T/C reads like this: (dose: 94.0 mg/kg/injection, schedule: Q01DX011 (ip), vehicle: carboxymethylcellulose (CMC)) 8 % of control; (dose: 125.0 mg/kg/injection, schedule: Q01DX011 (ip), vehicle: carboxymethylcellulose (CMC)) 9 % of control; (dose: 175.0 mg/kg/injection, schedule: Q01DX011 (ip), vehicle: carboxymethylcellulose (CMC)) 12 % of control; (dose: 188.0 mg/kg/injection, schedule: Q01DX011 (ip), vehicle: carboxymethylcellulose (CMC)) 2 % of control; (dose: 262.5 mg/kg/injection, schedule: Q01DX011 (ip), vehicle: carboxymethylcellulose (CMC)) 14 % of control.
